Consider three compounds from patent publication US20050065166A1, “Substituted pyrimidines” (priority 2001, published 2005).

For `Cc1nc(SCc2ccc(Cl)cc2)nc2c1CCCC2`, the melting point is 48 °C.

As for `Cc1nc([S+]([O-])Cc2ccc(Cl)cc2)nc2c1CCCC2` (stereo not drawn), the melting point worked out at 127 °C.

Turning to `Cc1nc(S(=O)(=O)Cc2ccc(Cl)cc2)nc2c1CCCC2`, the melting point came out at 151 °C.

In general, melting point refers to the temperature of the solid-liquid transition.
